In patent US8557853B2, “Aryl fluoroethyl ureas acting as alpha 2 adrenergic agents” (Allergan, Inc., priority 2007, dated 2013):

What was measured:
Format in all cases: cell-based
[1] = molecular target: T1, alpha2B receptor (Homo sapiens, UniProt P18089); assay: RSAT (Receptor Selection and Amplification Technology) assay, alpha 2B; details: for EC50: RSAT, transfected NIH-3T3 cells, "not active" = not active at concentrations less than 10 micromolar, read-out: Alpha 2B EC50; for Alpha 2B IA: intrinsic activity: ratio of maximal effect of drug to maximal effect of standard full agonist brimonidine (UK14304)
T1 construct: expressed in transfected cells; host or cells: NIH-3T3 cells
T1 sequence (P18089 1-450): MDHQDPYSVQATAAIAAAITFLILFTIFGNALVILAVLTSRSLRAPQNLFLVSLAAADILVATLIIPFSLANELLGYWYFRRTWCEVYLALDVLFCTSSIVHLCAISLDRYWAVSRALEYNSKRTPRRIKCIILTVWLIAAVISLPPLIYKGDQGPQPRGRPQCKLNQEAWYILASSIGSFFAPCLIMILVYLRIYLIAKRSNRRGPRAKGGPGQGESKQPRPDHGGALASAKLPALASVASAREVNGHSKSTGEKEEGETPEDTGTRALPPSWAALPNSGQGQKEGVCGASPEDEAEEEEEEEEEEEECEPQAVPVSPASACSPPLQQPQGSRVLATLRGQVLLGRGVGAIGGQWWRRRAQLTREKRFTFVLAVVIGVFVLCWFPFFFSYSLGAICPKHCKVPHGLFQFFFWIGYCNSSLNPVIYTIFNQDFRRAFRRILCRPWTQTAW
Procedure: (§1) The RSAT assay measures a receptor-mediated loss of contact inhibition that results in selective proliferation of receptor-containing cells in a mixed population of confluent cells. The increase in cell number is assessed with an appropriate transfected marker gene such as ∃-galactosidase, the activity of which can be easily measured in a 96-well format. Receptors that activate the G protein, Gq, elicit this response. Alpha 2 receptors, which normally couple to Gi, activate the RSAT response when coexpressed with a hybrid Gq protein that has a Gi receptor recognition domain, called Gq/i5.
(§2) NIH-3T3 cells are plated at a density of 2×10^6 cells in 15 cm dishes and maintained in Dulbecco's modified Eagle's medium supplemented with 10% calf serum. One day later, cells are cotransfected by calcium phosphate precipitation with mammalian expression plasmids encoding p-SV-β-galactosidase (5-10 μg), receptor (1-2 μg) and G protein (1-2 μg). 40 μg salmon sperm DNA may also be included in the transfection mixture. Fresh media is added on the following day and 1-2 days later, cells are harvested and frozen in 50 assay aliquots. Cells are thawed and 100 μl added to 100 μl aliquots of various concentrations of drugs in triplicate in 96-well dishes. Incubations continue 72-96 hr at 37° C. After washing with phosphate-buffered saline, ∃-galactosidase enzyme activity is determined by adding 200 μl of the chromogenic substrate (consisting of 3.5 mM o-nitrophenyl-β-D-galactopyranoside and 0.5% nonidet P-40 in phosphate buffered saline), incubating overnight at 30° C. and measuring optical density at 420 nm. The absorbance is a measure of enzyme activity, which depends on cell number and reflects a receptor-mediated cell proliferation. The efficacy or intrinsic activity is calculated as a ratio of the maximal effect of the drug to the maximal effect of a standard full agonist for each receptor subtype. Brimonidine, also called UK14304, the chemical structure of which is shown below, is used as the standard agonist for the alpha2A, alpha2B and alpha2C receptors.

[2] = molecular target: T2, alpha2A receptor (Homo sapiens, UniProt P08913); assay: RSAT (Receptor Selection and Amplification Technology) assay, alpha 2A
T2 construct: expressed in transfected cells; host or cells: NIH-3T3 cells
T2 sequence (P08913 1-465): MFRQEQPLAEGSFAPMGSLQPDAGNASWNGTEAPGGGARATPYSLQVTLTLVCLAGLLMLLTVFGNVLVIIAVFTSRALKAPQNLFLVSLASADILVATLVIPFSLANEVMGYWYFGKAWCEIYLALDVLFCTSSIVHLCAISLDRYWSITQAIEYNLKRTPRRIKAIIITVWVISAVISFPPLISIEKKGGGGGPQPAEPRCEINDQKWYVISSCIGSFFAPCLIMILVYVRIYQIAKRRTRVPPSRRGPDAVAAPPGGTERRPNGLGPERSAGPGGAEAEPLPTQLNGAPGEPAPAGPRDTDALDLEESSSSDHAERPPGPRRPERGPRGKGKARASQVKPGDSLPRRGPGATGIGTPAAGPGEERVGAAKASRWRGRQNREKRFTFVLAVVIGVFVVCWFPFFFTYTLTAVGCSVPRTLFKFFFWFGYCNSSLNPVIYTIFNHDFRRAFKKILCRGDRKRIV
Text: (§3) The aryl fluoroethyl ureas of the invention are agonists of alpha2 adrenergic receptors. […] Al, 1995, Pharmacol. Toxicol. 76, pp. 308-311 (incorporated herein by reference) and is also described below. Another reference pertinent to this assay is Conklin et al. (1993) Nature 363:274-6, Receptor Selection and Amplification Technology (RSAT) assay, also incorporated herein by reference.
as §1, §2
(§4) The results of the RSAT assay with several exemplary compounds of the invention are disclosed in Table 1 below together with the chemical structures of these compounds. “Not active” means the compounds are not active at concentrations less than 10 micromolar.

[3] = molecular target: T3, alpha2C receptor (Homo sapiens, UniProt P18825); assay: RSAT (Receptor Selection and Amplification Technology) assay, alpha 2C
T3 construct: expressed in transfected cells; host or cells: NIH-3T3 cells
T3 sequence (P18825 1-462): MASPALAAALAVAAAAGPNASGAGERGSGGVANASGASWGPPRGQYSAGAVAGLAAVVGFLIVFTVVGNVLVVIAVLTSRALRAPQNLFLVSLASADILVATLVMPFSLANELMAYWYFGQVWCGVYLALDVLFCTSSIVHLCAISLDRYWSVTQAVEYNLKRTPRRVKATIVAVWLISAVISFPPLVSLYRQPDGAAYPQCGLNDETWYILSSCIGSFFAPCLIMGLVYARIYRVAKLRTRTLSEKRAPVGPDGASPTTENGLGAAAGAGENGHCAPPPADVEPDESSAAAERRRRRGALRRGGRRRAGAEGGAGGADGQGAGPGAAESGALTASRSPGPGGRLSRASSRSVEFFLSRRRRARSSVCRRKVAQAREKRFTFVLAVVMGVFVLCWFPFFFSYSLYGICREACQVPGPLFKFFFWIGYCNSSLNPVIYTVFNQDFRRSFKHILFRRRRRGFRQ
Text: as §3, §1, §2, §4

[4] = RSAT, transfected NIH-3T3 cells, "not active" = not active at concentrations less than 10 micromolar
[5] = intrinsic activity: ratio of maximal effect of drug to maximal effect of standard full agonist brimonidine (UK14304)

Row | SMILES | EC50 [1] [µM] | Alpha 2B IA [1] | EC50 [2, 4] [µM] | Alpha 2A IA [2, 5] | Alpha 2C EC50 [3, 4] | Alpha 2A EC50 [2, 4] | EC50 [3, 4] [µM] | Alpha 2C IA [3, 5]
1 | Cc1nn(C)c(C)c1CNC(=O)NCCF [Compound 43, 1-(2-fluoro-ethyl)-3-(1,3,5-trimethyl-1H-pyrazol-4-ylmethyl)-urea] | 2.39 | 0.49 | 4.2 | 0.30 | not active | – | – | –
2 | Cc1cc(CNC(=O)NCCF)nn1C [Compound 44, 1-(1,5-dimethyl-1H-pyrazol-3-ylmethyl)-3-(2-fluoro-ethyl)-urea] | 2.28 | 0.67 | – | – | – | not active | 4.16 | 0.31
